From US5298513A, “Substituted basic 2-aminotetralin in pharmaceuticals” (Bayer Aktiengesellschaft, priority 1986, dated 1994)
Counter-ions that a name gives are not always drawn.

Assays:
5-HT1 receptor = experiment: Affinity to the 5-HT1 receptor (receptor binding, calf hippocampus membrane preparations, 3H-serotonin); details: calf hippocampus membranes, 3H-serotonin radioligand
Protocol: A.) Affinity to the 5-HT1 Receptor […] The values specified are data which were determined from receptor binding studies using calf hippocampus membrane preparations. 3H-serotonin was used for this purpose as radioactively labelled ligand.

[1] = test system: contraction, caused by serotonin, of the arteria basilaris; experiment: Serotonin-agonistic/antagonistic action on the contraction, caused by serotonin, of the arteria basilaris of the dog; format: cell-based; details: for Effect agonistic: serotonin-mimetic contraction; for Effect antagonistic: suppression of serotonin-induced contraction after pre-treatment
Source text: B.) Investigation of the serotonin-agonistic/antagonistic action
To this purpose, the action on the contraction, caused by serotonin, of the arteria basilaris of the dog is investigated [cf. Peroutka et al., Brain Research 259, 327 (1983)].
In this test model, an agonistic action can be detected by the serotonin-mimetic action (contraction).

| Compound | Ki (5-HT1 receptor) | Effect agonistic [1] | Effect antagonistic [1] |
| --- | --- | --- | --- |
| CCCN(CCCNC(=O)c1cccnc1)C1CCc2cccc(OC)c2C1 (stereo not drawn) [Example 62, dihydrochloride] | 4 nM | – | – |
| CCCN(CCN1CCCCS1(=O)=O)C1CCc2cccc(OC)c2C1 (stereo not drawn) [Example 58, 2-[2-N-Propyl-N-(8-methoxy-1,2,3,4-tetrahydro-2-naphthyl)-amino]ethyl-perhydro-1,2-thiazine 1,1-dioxide hydrochloride] | 4 nM | – | – |
| CCCN(CCC)C1CCc2cccc(O)c2C1 (stereo not drawn) [R^1 = H, R^2 = nC3 H7, R^3 = nC3 H7, reference compound] | – | – | 0 |
| CCCN(CCN(CC)CC)C1CCc2cccc(OC)c2C1 (stereo not drawn) [Example 20, 2-[N-(2-Diethylaminoethyl)-N-propyl]amino-8-methoxy-1,2,3,4-tetrahydronaphthalene dihydrochloride] | 11 nM | – | – |
| CCCN(CCO)C1CCc2cccc(OC)c2C1 (stereo not drawn) [Example 42, 2-[N-(2-Hydroxyethyl)-N-propyl]amino-8-methoxy-1,2,3,4-tetrahydronaphthalene] | 4 nM | – | – |

Continued, in another order:

| Ki (5-HT1 receptor) | Compound | Effect agonistic [1] | Effect antagonistic [1] |
| --- | --- | --- | --- |
| 2 nM | CCCN(CC#N)C1CCc2cccc(OC)c2C1 (stereo not drawn) [Example 26, 2-(N-Cyanomethyl-N-propyl)amino-8-methoxy-1,2,3,4-tetrahydronaphthalene hydrochloride] | – | – |
| 1 nM | CCCN(CCNS(=O)(=O)c1ccc(C)cc1)C1CCc2cccc(OC)c2C1 (stereo not drawn) [Example 45, 8-Methoxy-2-{N-[2-(4-toluene-sulphonamido)ethyl]-N-propyl}amino-1,2,3,4-tetrahydronaphthalene hydrochloride] | 0 | – |
| 3 nM | CCCN(CCNC(=O)OCC)C1CCc2cccc(OC)c2C1 (stereo not drawn) [Example 22, 2-[N-(2-Ethoxycarbonylamido-ethyl)-N-propyl]amino-8-methoxy-1,2,3,4-tetrahydronaphthalene hydrochloride] | – | 0 |
| 1 nM | CCCN(CCCCN1C(=O)c2ccccc2S1(=O)=O)C1CCc2cccc(OC)c2C1.Cl (stereo not drawn) [Example 34, 2-{4-[N-(8-Methoxy-1,2,3,4-tetrahydro-2-naphthyl)-N-propyl-amino]butyl}-1,2-benzisothiazol-3(2H)-one 1,1-dioxide hydrochloride] | 0 | – |
